Marks after values point to notes of the source that are not given here.

Data on five molecules can be found in US10858422B2, “Methods for treating systemic lupus erythematosus with an anti-apolipoprotein B antibody” (Abcentra, LLC, priority 2016, dated 2020).

The test system of one experiment is MRL/lpr ApoE−/− mice. The experiment is described as follows: Flow cytometry of blood, spleen and lymph node cells after oral immunization. Type of experiment: in vivo, mouse. As to conditions: 30 μg/ml. In general terms: A flow cytometer gives signals particle by particle.
A further experiment has as its system human PBMC. The experiment is described as follows: Death receptor activation of human PBMC: release of soluble death receptors, apoptosis. The class given is cell-based. As to conditions: for release of Fas into culture medium / release of TNF-R1: healthy donor PBMC, Fas ligand 0.5 μg/ml, IL-1β 10 ng/ml, TNF 10 ng/ml, LPS 10 μg/ml. The text has this:
PBMCs from SLE patients (n=6, x female and x male, age x+/−x years) and matched healthy controls (n=6, x female and x male, age x+/−x years) as well as from a healthy donor were isolated using FicollPaque Plus (GE healthcare, Waukesha, Wis., USA) density gradient centrifugation according to manufacturer's instructions. The cells from SLE patients and controls were resuspended in 40% autologous serum, 40% RPMI 1640 medium (Thermo Fisher Scientific, Waltham, Mass., USA) and 20% dimethyl sulfoxide (Sigma Aldrich, St. Louis, […]., USA) and frozen in liquid nitrogen.
Cells from healthy donors were seeded freshly at a density of 0.5×10^6 cells per well in complete RPMI (10 U/ml Penicillin/streptomycin, 1% L-glutamine, 1% sodium pyruvate, 1% Hepes and 0.1% mercaptoethanol) with 2% FBS (HyClone South Logan, Utah, USA). For death receptor activation, IL-1β, soluble Fas ligand, TNF (Peprotech, Rocky Hill, N.J., USA) and LPS (Sigma Aldrich) were used at a concentration of 10 ng/ml, 0.5 μg/ml, 10 ng/ml and 10 μg/ml respectively.
Cells from a healthy donor were seeded freshly at a density of 0.5×10^6 cells per well in complete RPMI (10 U/ml Penicillin/streptomycin, 1% L-glutamine, 1% sodium pyruvate, 1% Hepes and 0.1% mercaptoethanol) with 2% FBS (HyClone South Logan, Utah, USA). For death receptor activation, IL-1β, soluble Fas ligand, TNFα (Peprotech, Rocky Hill, N.J., USA) and LPS (Sigma Aldrich) were used at a concentration of 10 ng/ml, 0.5 μg/ml, 10 ng/ml and 10 μg/ml respectively.
Cell supernatants from death receptor activated PBMCs from a healthy donor and SLE patients/controls were used for measurement of soluble Fas, TNF-R1 and TRAIL-R2 with a magnetic bead system multiplex assay (R&D Systems, Minneapolis, Minn., USA) obtained by Luminex machine (Bio-Rad). For SLE patients and controls, TNF-R1 concentration was measured with ELISA (Abcam) according to manufacturer's recommendations.

For another experiment, the system named is gld.apoE−/− mice. The experiment is described as follows: Relative anti-P210 IgM/IgG antibody levels in serum (ELISA). As to conditions: normal diet (ND), ± SEM. Type of experiment: in vivo, mouse. On the procedure: Each animal dosed with a test article received subcutaneous primary immunization in the dorsal interscapular area at Day 0 (7 weeks of age), followed by a booster on Day 21 and 35 (10 and 12 weeks of age). CVX-3-84 was used to dose ApoE^−/− (n=20), gld mice (n=20). CVX-3-123 was used to dose gld.ApoE^−/− (n=30 on high cholesterol chow; n=30 on normal chow diet).
20 gld.ApoE^−/− mice in the positive control group received an oral dose of rosiglitazone at 10 mg/kg/day in normal chow starting on Day 0 (7 weeks of age) and continuing for the duration of the study period. Mice receiving Rosiglitazone were sacrificed at Day 126 (25 weeks of age).
Serum and urine was collected at day 63 of the study (16 weeks of age). Serum collected at day 63 of the study was analyzed for anti-P210 IgM and IgG antibodies. Levels of oxidized phospholipid was also measured in gld.apoE^−/− mice maintained on normal diet.
Serum and urine was collected at euthanasia. Endpoint serum was analyzed for anti-nuclear antibody (ANA) titers, total cholesterol, triglycerides, anti-P210 IgM antibodies, and anti-P210 IgG antibodies. Endpoint serum from gld.ApoE^−/− animals maintained on normal diet was also analyzed for anti-cardiolipin antibodies. Anti-nuclear antibody titers were tested using the NOVA-lite Hep2 ANA assay, and serum dilutions of 1:100, 1:1000, 1:10000, 1:30000, and 1:90000 were tested for nuclear-localized antibody reactivity to human epithelial cells. Reactivity was detected using FITC-conjugated goat anti-mouse IgG antibody. ANAs were scored based on the presence or absence of antibody signal at each titer. Total cholesterol was assessed using Cholesterol E reagent according to the manufacturer's protocol. Triglyceride levels were assessed with Triglyceride Reagent and with a glycerol standard. Anti-P210 antibodies were detected by ELISA using reconstituted P210 peptide.

Experiment [1] has as its system Spleen T-cells from gld.apoE−/− mice. The experiment is described as follows: Cytokine production from spleen T-cells activated by CD3/CD28. The class given is in vivo, mouse. As to conditions: Avg; for IFN-γ production / IL-6 production / IL-10 production / IL-12 (p70) production: Normal Diet; for TNFα Production from Spleen T-cells: Western Diet. On the procedure: Lymph nodes and spleen were harvested and weighed. Splenocytes were isolated and analyzed for T-regulatory cell populations by immunofluorescence staining and flow cytometry. Splenocytes were also cultured and T-cells activated in vitro by Mouse T-Activator CD3/CD28. Production of cytokines INF-γ, IL-6, IL-10, IL-12, and […] by activated T-cells were assessed with immunoassays.
CVX-12 immunization is hypothesized to impact atherosclerosis via modulation of T-cell cytokine release. Thus cytokine release by cultured splenocytes activated by CD3 and CD28 was assessed for the cytokines IFNγ, IL-6, IL-10, IL-12 (p70), and TNFα (Tables 6-12). CVX-12 immunization increased IL-6 and IL-10 cytokine release from spleen T-cells in apoE^−/− mice. […] IL-10 release from gld.apoE^−/− splenocytes was decreased by CVX-12 immunization of gld.apoE^−/− mice on western diet.

As for CTB, in the experiment on MRL/lpr ApoE−/− mice, the “central memory T cells in lymph node” value was found to be 34.5±10.6%, the “central memory helper T cells (CD3+CD4+CD62L+CD44int-hi) in spleen” value came to 19.4±5.2% and the “cytolytic T cell populations (CD3+CD8+CD62L+CD44int-hi) in spleen” value is reported as 18.2±3.7%.

For the molecule TNF-α [reference compound], in the experiment on human PBMC, the “release of Fas into culture medium” value is recorded as “no effect” and the “release of TNF-R1” value is recorded as “no effect”.

For the molecule “IL-1β: cytokine stimulus, 10 ng/ml [reference compound]”, in the experiment on human PBMC, the “release of Fas into culture medium” value is given as “no effect” and the “release of TNF-R1” value was “stimulated”.

For `CN(CCOc1ccc(CC2SC(=O)NC2=O)cc1)c1ccccn1` (stereo not shown) [Rosiglitazone], in the experiment with gld.apoE−/− mice (Endpoint), the “anti-P210 IgG” value is on record as 0.68 ± 0.07 OD at 405 nm and the “anti-P210 IgM” value is reported as 0.42 ± 0.06 ^a, c OD at 405 nm. In the experiment on gld.apoE−/− mice (Midpoint), the “anti-P210 IgG” value came out at 0.68 ± 0.07 OD at 405 nm and the “anti-P210 IgM” value came out at 0.64 ± 0.03 OD at 405 nm. Also, in experiment [1] (Stimulated), the IFN-γ production came out at 11419.9 pg/mL, the IL-6 production is on record as 385.0* pg/mL, the IL-10 production came to 1528.3 pg/mL and the “IL-12 (p70) production” value is listed as 44.7 pg/mL. Moreover, in experiment [1] (Unstimulated), the IFN-γ production is reported as 24.2* pg/mL, the IL-6 production was 255.9* pg/mL, the IL-10 production came to 196.0 pg/mL and the “IL-12 (p70) production” value amounted to 89.2 pg/mL. Moreover, the “TNFα Production from Spleen T-cells” value in experiment [1] (Unstimulated) was 8.9 pg/mL. In experiment [1] (Stimulated (CD3/CD28)), the “TNFα Production from Spleen T-cells” value is recorded as 39.5 pg/mL.

B1: Fas ligand: soluble Fas ligand used for death receptor activation of PBMC (protein)
chain: PSPPPEKKELRKVAHLTGKSNSRSMPLEWEDTYGIVLLSGVKYKKGGLVINETGLYFVYSKVYFRGQSCNNLPLSHKVYMRNSKYPQDLVMMEGKMMSYCTTGQMWARSSYLGAVFNLTSADHLYVNVSELSLVNFEESQTFFGLYKL
For the molecule B1, in the experiment on human PBMC (PBMCs from SLE patients), the “increase in the release of FAS” value was 73%. Further, the “frequency of apoptotic lymphocytes” value in the experiment with human PBMC (PBMCs from healthy controls (not in PBMCs from SLE patients)) is recorded as “increased”. Also, in the experiment with human PBMC, the “release of Fas into culture medium” value is “stimulated” and the “release of TNF-R1” value is given as “stimulated”.
